{"source": "patent US12275961B2", "about": "“Method for utilizing engineered dendritic cells to induce gut-homing regulatory T cells and treat gut inflammation” (LOMA LINDA UNIVERSITY, priority 2015, dated 2025)", "key": {"[1]": {"tested_on": "dextran sodium sulfate-induced inflammatory bowel disease", "assay": "DSS-induced inflammatory bowel disease, six-group study (Example V)", "assay_type": "in vivo, mice", "description": "Then, the efficacy of the disclosed agents and method was confirmed in an additional study. […] Injections were made at day 7 post-disease induction by dextran sodium sulfate. All mice were sacrificed at day 10."}, "[2]": {"tested_on": "foxp3 expression in activated T cells", "assay": "foxp3 expression in T cells of splenocytes activated by anti-CD3/CD28 beads with exogenous calcitriol", "assay_type": "cell-based, mouse", "conditions": "72 hours", "description": "The naive mouse splenocytes can be cultured for 3 days with 1,25 Vitamin D (100 U/ml, Sigma-Aldrich) in the presence of human (h) IL-2 (50 U/ml) in complete RPMI 1640 medium (10% FBS; HyClone). The cells were harvested and stained for the FoxP3 expression with an anti-FoxP3 Ab (FJK-16s; eBioscience) and CCR9 expression.\nA supraphysiological concentration of the active vitamin D metabolite, 1,25[OH]2D (calcitriol), may be necessary for calcitriol to induce foxp3 expression during T cell priming. Foxp3 is a protein that is involved in the regulatory pathway in the development and function of regulatory T cells. To determine whether a supraphysiological concentration is necessary, foxp3 expression in T cells during T cell activation in the presence of exogenous calcitriol can be examined. Splenocytes can be activated by anti-CD3/CD28 magnetic beads. In some cultures, 1,25[OH]2D can be added at a low (20 nM) or high (100 nM) concentration. Cells can be cultured for 72 hours and analyzed for foxp3 expression using flow cytometry. Flow cytometry can be performed by harvesting transduced mCYP27B1-positive DCs, washing them in PBS, resuspending them in the FACS buffer, and analyzing them for GFP expression on a flow cytometer. […] The normal range of human calcitriol serum concentration is 16˜56 pg/ml (0.038 nM 0.13 nM). […]"}, "[3]": {"conditions": "some patients; cited from earlier work"}, "[4]": {"conditions": "injection at day 7 post-DSS, sacrifice day 10"}}, "note": "Values joined by “and” are separate entries in the source; they are usually repeats but may differ in a detail not shown here. Equal values may be shown once."}
{"smiles": "C=C1C(=CC=C2CCC[C@]3(C)[C@@H]2CC[C@@H]3[C@H](C)CCCC(C)(C)O)C[C@@H](O)C[C@@H]1O", "note": "[calcitriol, (1R,3S)-5-[2-[(1R,3aR,7aS)-1-[(2R)-6-hydroxy-6-methyl-heptan-2-yl]-7a-methyl-2,3,3a, 5,6,7-hexahydro-1H-inden-4-ylidene]ethylidene]-4-methylidene-cyclohexane-1,3-diol]", "values": [{"measurement": "increase in serum calcium", "setting": "[1]; calcitriol 200 ng/day/mouse intraperitoneal", "result": "more than 30%"}, {"measurement": "colon lesions / mucosal integrity", "setting": "[1]; [4]", "result": "did improve colon mucosal integrity"}, {"measurement": "hypercalcemia", "setting": "[1]; [4]", "result": "severe hypercalcemia"}, {"measurement": "body weight loss", "setting": "[1]; injection at day 7 post-DSS, sacrifice day 10, calcitriol 200 ng/day/mouse intraperitoneal", "result": "failed to prevent body weight loss"}, {"measurement": "foxp3 expression in activated T cells", "setting": "[2]; 20 nM", "result": "slightly up regulated"}, {"measurement": "foxp3 expression in activated T cells", "setting": "[2]; 100 nM", "result": "significantly augment"}, {"measurement": "serum calcitriol level tolerated without dose-limiting toxicity (hypercalcemia)", "setting": "[3]", "result": "up to 300 pg/ml and ≤ 0.72 nM"}]}
